Consider 24 compounds from patent US5340833A, “Urokinase inhibitors” (Eisai Co., Ltd., priority 1992, dated 1994).

Where “and” joins values, the source holds several entries; their conditions need not be identical. Equal values may be shown once. Where a name gives a salt, the structure may show the parent alone.

Holding throughout (assay type): biochemical
In one experiment the target is T1, urokinase (Homo sapiens, UniProt P00749).
T1 construct: human high molecular weight urokinase; purchased American Diagnostica, Greenwich, Conn
As to the kind of experiment: Urokinase Indirect (Plasminogen-Linked) Assay. To be noted: Table 3 column 4, simple number, unit inferred; read-out: uPA Indirect (plasminogen-linked) IC50.

The next experiment has as its target T2, human two-chain tPA (Homo sapiens, UniProt P00750).
T2 construct: human two-chain tPA was substituted for urokinase; purchased American Diagnostica
Description: tPA Indirect (Plasminogen-Linked) Assay (tPA Direct Assay result where lower). The conditions noted are these: for tPA/UPA ratio: ratio with respect to urokinase indirect plasminogen-linked IC50, larger = greater specificity for urokinase; for IC50: tPA Indirect Plasminogen-Linked Assay, in rare cases direct assay result if lower, read-out: tPA IC50. The source says:
(iv) Both direct and plasminogen-linked pNA assays for tPA, the other mammalian plasminogen activator and the key initiator of blood clot dissolution or fibrinolysis. Since urokinase and tPA share an absolute specificity for the same peptide bond in plasminogen, urokinase inhibitors designed to block cellular invasiveness must be highly specific for urokinase over tPA in order to avoid serious thrombotic side effects secondary to undesired blockage of normal fibrinolysis. […] Spectrozyme tPA®, American Diagnostica) was substituted for urokinase substrate.

Another experiment has as its target T3, human plasmin (Homo sapiens, UniProt P00747).
T3 construct: plasmin, the potent general protease produced by cleavage of plasminogen by either urokinase or tPA; purchased American Diagnostica
Description: Plasmin Assay. To be noted: for PLM/uPA ratio: ratio with respect to urokinase indirect plasminogen-linked IC50, larger = greater specificity for urokinase; for IC50: read-out: PLASMIN IC50. As for the experimental part:
(v) A chromogenic pNA assay for plasmin, the potent general protease produced by cleavage of plasminogen by either urokinase or tPA. Although urokinase initiates cellular invasiveness by generating plasmin, the additional importance of plasmin in tPA-mediated fibrinolysis dictates that plasmin itself should be free from inhibition by urokinase inhibitors designed as anti-invasiveness agents. […] All other assay conditions, as well as methods of color quantitation, were carried out as described above for the urokinase direct assay.

T2 sequence (P00750 311-562 limits assumed): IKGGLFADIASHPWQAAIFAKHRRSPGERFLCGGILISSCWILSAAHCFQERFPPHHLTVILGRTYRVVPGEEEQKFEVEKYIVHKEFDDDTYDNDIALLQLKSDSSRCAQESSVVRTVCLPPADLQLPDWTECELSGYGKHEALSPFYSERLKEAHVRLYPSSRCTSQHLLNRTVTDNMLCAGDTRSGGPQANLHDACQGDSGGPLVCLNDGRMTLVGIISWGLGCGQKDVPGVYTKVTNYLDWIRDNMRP
T2 sequence (P00750 36-310 limits assumed): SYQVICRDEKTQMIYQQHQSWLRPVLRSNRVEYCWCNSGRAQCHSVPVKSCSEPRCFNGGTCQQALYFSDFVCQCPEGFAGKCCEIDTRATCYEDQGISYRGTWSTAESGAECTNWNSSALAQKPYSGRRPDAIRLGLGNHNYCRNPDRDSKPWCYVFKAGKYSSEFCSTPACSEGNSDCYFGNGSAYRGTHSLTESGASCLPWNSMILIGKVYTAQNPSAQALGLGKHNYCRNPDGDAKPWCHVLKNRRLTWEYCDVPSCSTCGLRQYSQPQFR
T3 sequence (P00747 581-810 limits assumed): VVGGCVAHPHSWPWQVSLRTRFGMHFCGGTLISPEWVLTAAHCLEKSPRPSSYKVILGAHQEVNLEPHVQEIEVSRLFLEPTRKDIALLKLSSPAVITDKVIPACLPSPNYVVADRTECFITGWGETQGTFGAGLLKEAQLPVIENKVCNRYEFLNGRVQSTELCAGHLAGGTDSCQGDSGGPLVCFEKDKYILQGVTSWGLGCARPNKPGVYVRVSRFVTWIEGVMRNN
T3 sequence (P00747 97-580 limits assumed): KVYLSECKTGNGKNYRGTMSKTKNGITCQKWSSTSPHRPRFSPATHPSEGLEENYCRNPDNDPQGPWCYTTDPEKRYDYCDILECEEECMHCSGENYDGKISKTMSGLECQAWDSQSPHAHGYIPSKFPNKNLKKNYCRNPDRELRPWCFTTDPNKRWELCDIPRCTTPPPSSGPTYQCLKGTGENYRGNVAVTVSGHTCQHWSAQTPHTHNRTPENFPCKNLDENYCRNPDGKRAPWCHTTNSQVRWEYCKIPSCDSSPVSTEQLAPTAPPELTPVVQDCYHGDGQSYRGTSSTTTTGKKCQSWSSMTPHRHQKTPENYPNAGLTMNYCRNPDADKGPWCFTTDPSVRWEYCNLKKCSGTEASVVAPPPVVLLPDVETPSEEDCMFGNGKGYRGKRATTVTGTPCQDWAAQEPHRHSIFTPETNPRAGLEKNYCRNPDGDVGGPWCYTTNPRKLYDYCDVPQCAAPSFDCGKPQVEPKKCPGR
Description for urokinase: (ii) An indirect plasminogen-linked assay in which urokinase proteolytically activates plasminogen, forming plasmin which then cleaves a synthetic tripeptide pNA plasmin substrate.
Incubations were carried out at 22° C. for 45-60 minutes or until adequate color developed. Color qas quantitated as in the urokinase direct assay above. Parallel incubations were performed with and without plasminogen, and corrected absorbance values were obtained by subtracting values obtained without plasminogen from those obtained with plasminogen, eliminating any contribution of direct cleavage, if any, of plasmin substrate by urokinase.

As a reminder, the IC50 is the concentration needed to halve the response being measured. On to `CCCCc1cccc2sc(C(=N)N)cc12.Cl` [Compound 10, 4-Butylbenzo[b]thiophene-2-carboxamidine hydrochloride], for which the 50% inhibitory concentration (IC50) at urokinase amounted to 0.42 µM. Moreover, on human two-chain tPA, the tPA/UPA ratio came to 352 and the IC50 amounted to 148 µM. At human plasmin, the PLM/uPA ratio is 907 and the IC50 amounted to 381 µM.

For `CC(C)CCc1cccc2sc(C(=N)N)cc12.Cl` [Compound 12, 4-(3-Methylbutyl)benzo[b]thiophene-2-carboxamidine hydrochloride], the IC50 on urokinase was determined as 0.34 µM. For the same compound, on human two-chain tPA, the tPA/UPA ratio came out at 279 and the IC50 stood at 95 µM. On human plasmin, the PLM/uPA ratio was found to be 847 and the IC50 is 288 µM.

Regarding `CCCCCCc1cccc2sc(C(=N)N)cc12.Cl` [Compound 13, 4-(Hexyl)benzo[b]thiophene-2-carboxamidine hydrochloride], at urokinase, the IC50 came out at 0.42 µM. Besides, at human two-chain tPA, the tPA/UPA ratio is 214 and the IC50 came to 90 µM. Besides, at human plasmin, the PLM/uPA ratio was determined as 464 and the IC50 was found to be 195 µM.

Consider `C=Cc1cccc2sc(C(=N)N)cc12.Cl` [Compound 17, 4-Ethenylbenzo[b]thiophene-2-carboxamidine hydrochloride], for which the IC50 on urokinase came to 1.4 µM. Moreover, at human two-chain tPA, the tPA/UPA ratio came to 6.3 and the IC50 turned out to be 8.6 µM. Moreover, at human plasmin, the PLM/uPA ratio was found to be 42 and the IC50 was 57 µM.

Regarding `C=CCc1cccc2sc(C(=N)N)cc12.Cl` [Compound 19, 4-(Prop-2-enyl)benzo[b] thiophene-2-carboxamidine hydrochloride], at urokinase, the half-maximal inhibitory concentration (IC50) worked out at 0.45 µM. Also, at human two-chain tPA, the tPA/UPA ratio is recorded as 127 and the IC50 amounted to 57 µM. Moreover, at human plasmin, the PLM/uPA ratio is recorded as 1120 and the 50% inhibitory concentration (IC50) came to 505 µM.

For the compound `CC(C)/C=C/c1cccc2sc(C(=N)N)cc12.Cl` [Compound 23, 4-(E-3-Methylbut-1-enyl)benzo[b]thiophene-2-carboxamidine hydrochloride], the IC50 on urokinase was 0.13 µM. Besides, on human two-chain tPA, the tPA/UPA ratio was determined as 315 and the IC50 turned out to be 41 µM. Also, on human plasmin, the PLM/uPA ratio was 4838 and the IC50 was determined as 629 µM.

Take `CCC/C=C/c1cccc2sc(C(=N)N)cc12.Cl` [Compound 25, 4-(E-Pent-1-enyl)benzo[b]thiophene-2-carboxamidine hydrochloride]: the IC50 is 0.14 µM at urokinase, 48 µM at human two-chain tPA and 206 µM at human plasmin. Moreover, the tPA/UPA ratio on human two-chain tPA is given as 343. At human plasmin, the PLM/uPA ratio is on record as 1471.

Consider `CCCCC=Cc1cccc2sc(C(=N)N)cc12` [Compound 29, 4-(E/Z-Hex-1-enyl)benzo[b]thiophene-2-carboxamidine hydrochloride], for which the IC50 at urokinase is 0.34 µM; at human two-chain tPA, 85 µM; at human plasmin, 244 µM. Also, the tPA/UPA ratio at human two-chain tPA was determined as 250. At human plasmin, the PLM/uPA ratio is recorded as 718.

`C#Cc1cccc2sc(C(=N)N)cc12.Cl` [Compound 39, 4-Ethynylbenzo[b]thiophene-2-carboxamidine hydrochloride]: the IC50 at urokinase worked out at 0.66 µM. For the same compound, on human two-chain tPA, the tPA/UPA ratio is reported as 436 and the IC50 amounted to 288 µM. Besides, on human plasmin, the PLM/uPA ratio stood at 661 and the IC50 worked out at 704 µM.

As to `Cl.N=C(N)c1cc2c(-c3ccccc3)cccc2s1` [Compound 44, 4-Phenylbenzo[b]thiophene-2-carboxamidine hydrochloride], at urokinase, the IC50 amounted to 1.1 µM. On human two-chain tPA, the tPA/UPA ratio came out at 58 and the IC50 worked out at 64 µM. In addition, on human plasmin, the PLM/uPA ratio amounted to 800 and the half-inhibitory concentration (IC50) turned out to be 881 µM.

On to `Cl.Cl.N=C(N)c1cc2c(-c3cccnc3)cccc2s1` [Compound 48, 4-(Pyrid-3-yl)benzo[b]thiophene-2-carboxamidine bis-hydrochloride], for which the IC50 on urokinase turned out to be 0.56 µM. Besides, at human two-chain tPA, the tPA/UPA ratio is given as 152 and the IC50 turned out to be 85 µM. Besides, at human plasmin, the PLM/uPA ratio stood at 609 and the IC50 worked out at 341 µM.

Turning to `Cl.N=C(N)c1cc2c(-c3ccco3)cccc2s1` [Compound 49, 4-(Furan-2-yl)benzo[b]thiophene-2-carboxamidine hydrochloride], the 50% inhibitory concentration (IC50) at urokinase was found to be 0.36 µM. At human two-chain tPA, the tPA/UPA ratio worked out at 53 and the IC50 was determined as 19 µM. For the same compound, at human plasmin, the PLM/uPA ratio was 1000 and the IC50 worked out at 360 µM.

On to `Cl.N=C(N)c1cc2c(-c3cccs3)cccc2s1` [Compound 50, 4-(Thien-2-yl)benzo[b]thiophene-2-carboxamidine hydrochloride], for which, on urokinase, the IC50 turned out to be 0.5 µM. On human two-chain tPA, the tPA/UPA ratio was found to be 56 and the IC50 is 28 µM. Moreover, on human plasmin, the PLM/uPA ratio is given as 762 and the IC50 is 381 µM.

For `Cl.N=C(N)c1cc2c(-c3cc4ccccc4o3)cccc2s1` [Compound 51, 4-(Benzo[b]furan-2-yl)benzo[b]thiophene-2-carboxamidine hydrochloride], on urokinase, the IC50 stood at 0.56 µM. Further, on human two-chain tPA, the tPA/UPA ratio turned out to be 200 and the IC50 was found to be 112 µM. At human plasmin, the PLM/uPA ratio was found to be 1330 and the IC50 was 745 µM.

Regarding `N=C(N)c1ccc(-c2ccc(-c3cccc4sc(C(=N)N)cc34)o2)cc1` [Compound 53, 4-[5-(4-carboxamidinophenyl)fur-2-yl]benzo[b]thiophene-2-carboxamidine bis-hydrochloride], at urokinase, the IC50 amounted to 0.092 µM. At human two-chain tPA, the tPA/UPA ratio is 45 and the IC50 came out at 4.1 µM. Moreover, at human plasmin, the PLM/uPA ratio is listed as 511 and the IC50 was 47 µM.

Take `Cl.N=C(N)c1cc2c(CO)cccc2s1` [Compound 56, 4-(Hydroxymethyl)benzo[b]thiophene-2-carboxamidine hydrochloride]: the figures for the IC50 at urokinase and at human two-chain tPA were 0.88 µM and 563 µM, respectively. Further, the tPA/UPA ratio at human two-chain tPA was 640. On human plasmin, the PLM/uPA ratio is no less than 1500. The inhibition at 1000 µM on human plasmin (read-out: PLASMIN activity observed relative to inhibitor-free controls) came to 67%.

For the compound `CSc1cccc2sc(C(=N)N)cc12.Cl` [Compound 58, 4-(Methylthio)benzo[b]thiophene-2-carboxamidine hydrochloride], the IC50 came out at 0.56 µM on urokinase, 231 µM at human two-chain tPA and 534 µM on human plasmin. The tPA/UPA ratio on human two-chain tPA is reported as 413. Also, the PLM/uPA ratio on human plasmin was 954.

Take `N=C(N)c1cc2c(C=Cc3ccccc3)cccc2s1` [Compound 63, 4-(E/Z-2-Phenylethenyl)benzo[b]thiophene-2-carboxamidine hydrochloride]: the IC50 on urokinase was 0.14 µM; at human two-chain tPA, 12 µM; on human plasmin, 175 µM. The tPA/UPA ratio at human two-chain tPA is given as 86. Besides, the PLM/uPA ratio on human plasmin is 1250.

For `N=C(N)c1cc2c(C=Cc3ccc4c(c3)OCCO4)cccc2s1` [Compound 66, 4-[E/Z,2-(Benzo-1,4-dioxan-6-yl)ethenyl]benzo[b]thiophene-2-carboxamidine hydrochloride], the IC50 on urokinase was 0.12 µM and 0.038 µM; at human two-chain tPA it was 15 µM; on human plasmin it was 174 µM. For the same compound, the tPA/UPA ratio on human two-chain tPA amounted to 395. Besides, at human plasmin, the PLM/uPA ratio was found to be 4580.

Regarding `Cl.N=C(N)c1cc2c(/C=C/c3ccco3)cccc2s1` [Compound 67, 4-[E-2-(Furan-2-yl)ethenyl]benzo[b]thiophene-2-carboxamidine hydrochloride], the IC50 at urokinase amounted to 0.195 µM. Also, at human two-chain tPA, the tPA/UPA ratio is listed as 133 and the IC50 came to 26 µM. Further, at human plasmin, the PLM/uPA ratio amounted to 1000 and the half-inhibitory concentration (IC50) was determined as 195 µM.

Regarding `N=C(N)c1cc2c(/C=C/c3cccc4sc(C(=N)N)cc34)cccc2s1` [Compound 73, 4-[E-2-(2-Carboxamidinobenzothien-4-yl)ethenyl]benzo[b]thiophene-2-carboxamidine bis-hydrochloride], the IC50 at urokinase stood at 0.17 µM. Moreover, on human two-chain tPA, the tPA/UPA ratio amounted to 15.9 and the IC50 turned out to be 2.7 µM. Moreover, at human plasmin, the PLM/uPA ratio amounted to 147 and the IC50 stood at 25 µM.

In the case of `Cl.N=C(N)c1cc2c(C#Cc3ccco3)cccc2s1` [Compound 75, 4-[(Furan-2-yl)ethynyl]benzo[b]thiophene-2-carboxamidine hydrochloride], the IC50 at urokinase came out at 0.17 µM; on human two-chain tPA it was 33 µM; on human plasmin it was 288 µM. At human two-chain tPA, the tPA/UPA ratio worked out at 194. Further, at human plasmin, the PLM/uPA ratio came out at 1694.

As to `Cl.N=C(N)c1cc2c(C#Cc3ccc4c(c3)OCO4)cccc2s1` [Compound 77, 4-[(Benzo-1,3-dioxolan-5-yl)ethynyl]benzo[b]thiophene-2-carboxamidine hydrochloride], the IC50 on urokinase was 0.059 µM; at human two-chain tPA it was 8.4 µM; at human plasmin it was roughly 250 µM. Also, on human two-chain tPA, the tPA/UPA ratio stood at 142. Further, the PLM/uPA ratio result on human plasmin is on record as “≈ 4240”.

In the case of `Cl.N=C(N)c1cc2c(-c3ccc(-c4ccccc4)o3)cccc2s1` [Compound 78, 4-(5-Phenylfur-2-yl)benzo[b]thiophene-2-carboxamidine hydrochloride], the IC50 was 0.49 µM at urokinase, 26 µM at human two-chain tPA and roughly 250 µM at human plasmin. Further, at human two-chain tPA, the tPA/UPA ratio was determined as 53. In addition, on human plasmin, the PLM/uPA ratio entry is listed as “≈ 500”.
